Legend:
Format in all cases: cell-based
[1] = test system: RKO human colon cancer cell line; assay: Western blot of r-H2AX and cleaved caspase 3; settings: 50 μM, 48 hours
Excerpt: (§1) In order to analyze the degree of DNA damage and the degree of apoptosis of Compound A, which is a novel PARP/Tankyrase simultaneous inhibitor, when the p53 gene is a normal type and the LIG4 gene is a mutant type, the present inventors treated a novel PARP/Tankyrase simultaneous inhibitor, Compound A, and the competitive drug PARP inhibitor; olaparib, in the HCT116 human colon cancer cell line in which the p53 gene and an LIG4 gene are normal types and in the RKO human colon cancer cell line in which the p53 gene is a normal type and an LIG4 gene is a mutant type, and then confirmed the DNA damage with the expression level of r-H2Ax by western blotting method and confirmed the degree of apoptosis with the expression level of cleaved caspase 3. The conditions and method of the experiment were as follows: The HCT116 human colon cancer cell line in which the p53 gene and an LIG4 gene are normal types and the RKO human colon cancer cell line in which the p53 gene is a normal type and an LIG4 gene is a mutant type were cultured in RPMI1640 (10% FBS, 1% penicillin/streptomycin) and cultured in a 60 mm plate at 1×10^5 per well for 24 hours at 37° C. Compound A, which is a novel PARP/Tankyrase simultaneous inhibitor, and olaparib, which is a competitive drug PARP inhibitor, were treated with 50 μM each and were cultured for 48 hours. Then, the cells were obtained using a centrifuge. Each cell thus obtained was dissolved using an RIPA buffer, and the proteins were extracted using a high-speed centrifuge. 30 μg protein per cell was electrophoresed by western blot method to separate proteins and transferred to PDVF membrane. The r-H2AX, truncated caspase 3, and b-actin antibody were diluted with each 1:2000 in 5% skim milk. Then, the cells were reacted at 4° C. for 12 hours and then washed three times for 15 minutes with TBS-T buffer. The secondary antibody was diluted with each 1:2000 ratio in 5% skim milk and reacted at room temperature for 2 hours. It was washed with TBS-T buffer three times for 15 minutes to induce luminescence of PDVF membrane using ECL (Enhanced Chemiluminescence) buffer solution to develop protein expression on each anti-body using an X-ray film.

[2] = test system: HCT116 human colon cancer cell line; assay: Western blot of r-H2AX and cleaved caspase 3; settings: 50 μM, 48 hours
Excerpt: as §1

[3] = test system: HCT116 human colon cancer cell line; assay: DNA damage by r-H2AX immunocytochemistry; settings: HCT116 (p53 normal type); 50 μM, 48 hours
Excerpt: In order to analyze the degree of DNA damage of Compound A, which is a novel PARP/Tankyrase simultaneous inhibitor when the p53 gene is a normal type, the present inventors treated a novel PARP/Tankyrase simultaneous inhibitor, Compound A, and the competitive drug PARP inhibitor, olaparib, in the HCT116 human colon cancer cell line in which the p53 gene is a normal type, and then the DNA damage was confirmed by immunochemical method as the expression level of r-H2AX. The conditions and methods of the experiment were as follows: HCT116 human colon cancer cell line in which the p53 gene is a normal type was cultured in RPMI1640 (10% FBS, 1% penicillin/streptomycin) and cultured in a 60 mm plate at 1×10^5 per well for 24 hours at 37° C. Compound A, which is a novel PARP/Tankyrase simultaneous inhibitor, and olaparib, which is a competitive drug PARP inhibitor, were treated with 50 μM each and were cultured for 48 hours. […] The r-H2AX antibody was diluted at a ratio of 1:100 in 1% BSA, reacted overnight at 4° C., washed three times for 10 minutes with TBS-T buffer, and the secondary antibody (alexa Fluor®488 fitc) was diluted at a ratio of 1:100 in 1% BSA, reacted at room temperature for 2 hours, and then washed with TBS-T A buffer three times for 10 minutes, and stained with DAPI (4′,6-diamidino-2-phenylindole) to confirm the expression level of r-H2AX under a fluorescence microscope.

[4] = test system: SW620 human colon cancer cell line; assay: Trypan blue apoptosis with overexpressed mutant LIG4 (G833A or T1704C); settings: SW620 overexpressing LIG4 mutant G833A or T1704C vs control group (empty); 25 μM and 50 μM, 48 hours
Excerpt: In order to analyze the degree of apoptosis of Compound A, which is a novel PARP/Tankyrase simultaneous inhibitor, when the p53 genotype is a mutant type and an LIG4 genotype is a mutant type, the present inventors treated a novel PARP/Tankyrase simultaneous inhibitor, Compound A, and the competitive drug PARP inhibitor, olaparib, while overexpressing an LIG4 mutant type in the SW620 human colon cancer cell line in which the p53 gene is a mutant type and an LIG4 genotype is a normal type. Then, the number of cells was measured by trypan blue staining assay to confirm the degree of apoptosis. The conditions and methods of the above experiment were as follows: SW620 human colon cancer cell line in which the p53 gene is a mutant type and the LIG4 gene is a normal type was cultured in RPMI1640 (10% FBS, 1% penicillin/streptomycin) and cultured in a 60 mm plate at 1×10^5 per well for 24 hours at 37° C. G833A or T1704C plasmid DNA in which an LIG4 genotype is a mutant type was infused into cells by means of Lipofectamin 2000 (Invitrogen), and then overexpressed at 37° C. for 48 hours. Then, the cells were treated with each of 25 μM and 50 μM of Compound A, which is a novel PARP/Tankyrase simultaneous inhibitor and olaparib, a competitive drug PARP inhibitor. After 48 hours of culturing, the number of cells was measured by trypan blue staining and the degree of apoptosis was confirmed.

In the case of `CCOc1cc(CN(C)C)cc2[nH]c(=O)c3c(c12)NCCC3` [Compound A, 8-[(dimethylamino)methyl]-10-ethoxy-1,2,3,4-tetrahydrobenzo[h][1,6]naphthyridin-5(6H)-one], the “expression amount of truncated caspase 3 (western blot)” value [1] is reported as “increased expression amount of the truncated caspase 3”, the “expression of r-H2AX (western blot)” value [1] is reported as “increased expression of r-H2AX than the group treated with olaparib” and the “expression amount of truncated caspase 3 (western blot)” value [2] is reported as “increased expression amount of the truncated caspase 3”. For the same molecule, the “expression of r-H2AX (western blot)” value [2] was “increased expression of r-H2AX than the group treated with olaparib”, the “DNA damage: expression level of r-H2AX (immunocytochemistry)” value [3] was “higher expression of r-H2AX than the group treated with olaparib” and the “degree of apoptosis (trypan blue cell count)” value [4] was “no change in the apoptosis”.

From US10683553B2, “Method for determining sensitivity to simultaneous inhibitor against PARP and Tankyrase” (THE ASAN FOUNDATION, priority 2015, dated 2020)
